According to patent US20260232666A1, “COMPOSITIONS AND METHODS FOR INHIBITION OF RAS” (TheRas, Inc., priority 2023, published 2026):
Each block holds one compound with its values, some of them ahead of it.

Experiments:
[1] = target: T1, GppNHp-loaded KRAS4b (amino acids 1-169) G12C/C118S protein (Homo sapiens, UniProt P01116, C118S/G12C); assay: Covalent cysteine 12 modification by MALDI-TOF MS, GppNHp-loaded KRAS G12C; format: binding; conditions: 15 minutes reaction time point
T1 construct: KRAS4b (amino acids 1-169) G12C/C118S protein; made in house
Method: (§1) Biological Example 1: Covalent Cysteine 12 Modification Analysis Using Matrix Assisted Laser Desorption Ionization-Time of Flight Mass Spectrometry (MALDI-TOF MS)
(§2) MALDI-TOF MS analysis was performed using 1 μM protein (KRAS G12C), and 1:2.5 protein to compound ratio.
(§3) Reaction: 1 μM of GppNHp, GTP, or GDP-loaded KRAS4b (amino acids 1-169) G12C/C118S protein (produced in-house by Protein Expression Laboratory, FNLCR/Leidos Biomed) in 20 mM 4-(2-hydroxyethyl)-1-piperazineethanesulfonic acid (HEPES) buffer containing 150 mM NaCl, 1 mM MgCl2, pH 7.3 was prepared freshly before assay. Twelve-μL aliquots of protein were dispensed onto low volume 384-well plate, then 30 nL of tested compounds from 1 mM DMSO stocks were added to appropriate wells using ECHO 555 acoustic liquid handler (Labcyte Inc.). For each reaction/assay, three blanks were prepared by mixing 12 μL of protein solution with 30 nL DMSO. The contents of the wells were carefully mixed by aspiration, and then each plate was sealed with an adhesive cover, centrifuged at 2000 g for 1 minute, and kept in the dark at room temperature until 5 min, 15 min, 30 min, 2 h, or 6 h collections.
(§4) Target pretreatment: Before each assay MALDI target (Bruker MPT 384 ground steel BC) was pre-treated by pipetting on each spot 0.75 μL of saturated sinapinic acid in acetonitrile (ACN).
(§5) Sample preparation: At collection time point, 2 μL of reaction mixtures were pipetted out into 15 μL MALDI matrix solution (saturated solution of sinapinic acid in 1:1 ACN:water solution containing 0.75% trifluoroacetic acid (TFA)) deposited on 384 well polypropylene plate. Resulting solution was mixed by aspiration, centrifuged at 2000 g for 1 minute, then 1.5 μL aliquots were dispensed on pre-treated MALDI target using Beckman Coulter Biomek FXP 96/384-Span-8 Laboratory Automation Workstation. Finally, the MALDI target was dried under mild vacuum to produce spots with fine crystalline structure.
(§6) Measurements: MALDI-TOF measurements were performed on a Bruker Daltonics rapiflex Tissuetyper TOF-TOF mass spectrometer using linear mode and mass range from 18.6 to 21.6 kDa. Detector gain was set to 3.3×(483 V), sample rate to 5 GS/s, real time smoothing to medium (175 MHz), laser smart beam pattern was set to: “MS Thin Layer M5”, and the laser frequency was 10000 Hz. Spectra were automatically collected using custom AutoXecute method. Laser power was auto adjusted using fuzzy control. The peak selection range was set to be between 19000 and 21500 Da. Peak evaluation uses half width parameter set to be smaller than 40 Da for processed spectrograms (centroid peak detection; smoothed by SavitzkyGolay algorithm using 7 m/z width and 2 cycles; baseline was subtracted using median algorithm with flatness 1 and median level 0.01). Fuzzy control used Proteins/Oligonucleotides protocol with minimum half width 1/10 times above threshold. Up to 40000 satisfactory shots were collected in 10000 shot steps. Dynamic termination was implemented to finish data collection when peak signal/noise ratio was reaching value of 50.
(§7) Spectra processing: Spectra were smoothed by SavitzkyGolay algorithm using 7 m/z width and three cycles. Centroid peak detection algorithm was used with signal to noise threshold set to 6, relative intensity threshold 4%, peak width 10 m/z and median baseline subtraction using flatness of 1 and median level of 0.01. Peak intensity and area under the peak were evaluated and recorded for all peaks between 19,300 Da and 21,550 Da.
(§8) Calculation of percent modification: Percent modification was calculated as a ratio of peak height for protein modified by compound to sum of peak height of remaining protein plus peak height for protein modified by compound. If multiple modifications were observed each was calculated as a ratio of peak height for given modification versus sum of peak heights for all observed protein species. Data reported in Table 4 are from 15 minutes reaction time point. […]

[2] = target: T2, GTP-loaded KRAS4b (amino acids 1-169) G12C/C118S protein (Homo sapiens, UniProt P01116, C118S/G12C); assay: Covalent cysteine 12 modification by MALDI-TOF MS, GTP-loaded KRAS G12C; format: binding; conditions: 15 minutes reaction time point
T2 construct: KRAS4b (amino acids 1-169) G12C/C118S protein; made in house
Method: as §1, §2, §3, §4, §5, §6, §7, §8

[3] = target: T3, GDP-loaded KRAS4b (amino acids 1-169) G12C/C118S protein (Homo sapiens, UniProt P01116, C118S/G12C); assay: Covalent cysteine 12 modification by MALDI-TOF MS, GDP-loaded KRAS G12C; format: binding; conditions: 15 minutes reaction time point
T3 construct: KRAS4b (amino acids 1-169) G12C/C118S protein; made in house
Method: as §1, §2, §3, §4, §5, §6, §7, §8

[4] = test system: pERK in NCI-H358 cells; assay: Cell-based pERK HTRF assay (pERK inhibition in H358 cells); conditions: 30 min incubation
Method: Biological Example 3: Cell-Based pERK HTRF Assay
pERK assays (Perkin Elmer) were used to determine the effectiveness of compounds of the present disclosure in disrupting KRAS G12C protein/effector signaling in cells.
On Day 1, cells (NCI-H358) were seeded into 96-well plates at 4×10^4 cells/well in complete growth media (RPMI, 10% FBS).
On Day 2, cells were treated with compounds at 0.25% DMSO. The source plate was created with compounds diluted in media at 5-fold the final assay concentration. The compounds were run in a 9-point concentration curve starting at 75 μM, with a 3-fold dilution between concentrations. 20 μL was transferred onto the cell plates (final volume in wells was 100 μL). Plates were harvested after 30 min incubation by aspirating media and adding kit-supplied 1× supplemented lysis buffer to all wells (75 μl per well). Plates were then placed on a plate shaker and incubated at 850 rpm for an additional 30 min.
Antibody mixture solution was prepared by diluting aliquoted d2 and Eu Cryptate antibodies 1:20 in kit supplied detection buffer, then mixed the diluted antibodies solutions (1:1 v:v). 4 μL of this solution was then added to a 384-well detection plate (Perkin Elmer; 6008230).
Samples were homogenized by pipetting up and down and then transferred (16 μL of cell lysates) from the 96-well cell culture plate to two wells of the HTRF 384-well detection plate containing the antibody solution. Plates were centrifuged (524 g for […]) and allowed to incubate between 4 and 24 h at room temperature. Maximum signal is reached after 4 h incubation time and remains stable over a period of 24 hours. Therefore, readings can be made between 4 and 24 h of incubation. Plates were centrifuged again (524 g for 1 min), and analyzed on the En Vision plate reader using the following settings: Excitation 320 nm, Bandwidth 75 nm; Emission 615 nm, Bandwidth 85 nm; Gain 100%; Flashes 100; Lag 60 μs.
The percent of modification of GppNHp, GTP, or GDP loaded KRAS G12C by MALDI-TOF MS, biochemical Raf1 RBD-KRAS G12C-GppNHp disruption assay IC50, and pERK inhibition IC50 of selected compounds described herein are shown in Table 4. For percent of modification at 15 minutes (MALDI-TOF MS) of GppNHp, GTP, or GDP loaded KRAS G12C: A: percent of modification ≥70%; B: 50≤percent of modification <70%; C: 10%≤percent of modification <50%; D: percent of modification <10%. […] For pERK inhibition in H358 cell assay: A: IC50≤0.1 μM; B: 0.1 μM<IC50≤1 μM; C: IC50>1 μM. Blanks in the table represent that compound was not tested in the indicated assay.

SMILES: C=CC(=O)N1CC[C@@H](N(C)c2nc(OC[C@@]34CCCN3C[C@H](F)C4)nc3c(F)c(-c4ccc(F)c5sc(N)c(C#N)c45)c(Cl)cc23)[C@H]1C (atropisomer, axis not shown) [Compound 51]
GppNHp-KRAS G12C percent of modification [1]: A (percent of modification ≥70%) | GTP-KRAS G12C percent of modification [2]: A (percent of modification ≥70%)

SMILES: C=CC(=O)N1CC[C@@H](N(C)c2nc(OC[C@@]34CCCN3C[C@H](F)C4)nc3c(F)c(-c4ccc(F)c5sc(N)c(C#N)c45)ccc23)[C@H]1C [Compound 13]
GppNHp-KRAS G12C percent of modification [1]: A (percent of modification ≥70%) | GTP-KRAS G12C percent of modification [2]: A (percent of modification ≥70%) | GDP-KRAS G12C percent of modification [3]: A (percent of modification ≥70%)

SMILES: C=CC(=O)N1CC[C@@H](N(CC)c2nc(OC[C@@]34CCCN3C[C@H](F)C4)nc3cc(-c4ccc(F)c5sc(N)c(C#N)c45)c(F)cc23)[C@H]1C [Compound 21, 4-(4-(((2R,3R)-1-acryloyl-2-methylpyrrolidin-3-yl)(ethyl)amino)-6-fluoro-2-(((2R,7aS)-2-fluorotetrahydro-1H-pyrrolizin-7a(5H)-yl)methoxy)quinazolin-7-yl)-2-amino-7-fluorobenzo[b]thiophene-3-carbonitrile]
GppNHp-KRAS G12C percent of modification [1]: A (percent of modification ≥70%) | GTP-KRAS G12C percent of modification [2]: A (percent of modification ≥70%) | GDP-KRAS G12C percent of modification [3]: A (percent of modification ≥70%)

SMILES: C=CC(=O)N1C[C@H](C)N(c2nc(OC[C@]34CCCN3C[C@@H](F)C4)nc3c(F)c(-c4ccc(F)c5sc(N)c(C#N)c45)c(C(F)(F)F)cc23)C[C@H]1C [Compound 26]
GppNHp-KRAS G12C percent of modification [1]: B (50≤percent of modification <70%) | GDP-KRAS G12C percent of modification [3]: C (10%≤percent of modification <50%)

SMILES: C=CC(=O)N1CC[C@@H](N(CC)c2nc(OC[C@@]34CCCN3C[C@H](F)C4)nc3c(F)c(-c4ccc(F)c5sc(N)c(C#N)c45)c(Cl)cc23)[C@H]1C [Compound 85]
GppNHp-KRAS G12C percent of modification [1]: A (percent of modification ≥70%) | GTP-KRAS G12C percent of modification [2]: B (50≤percent of modification <70%) | IC50 ([4]; Homo sapiens, NCI-H358, 0.5 h): < 100 nM

SMILES: C=CC(=O)N1CC[C@@H](N(C)c2nc(O[C@@H](C)[C@@H]3C[C@@H](OC)CN3C)nc3c(F)c(-c4ccc(F)c5sc(N)c(C#N)c45)c(C(F)(F)F)cc23)[C@H]1C [Compound 192]
GppNHp-KRAS G12C percent of modification [1]: A (percent of modification ≥70%) | GTP-KRAS G12C percent of modification [2]: A (percent of modification ≥70%) | GDP-KRAS G12C percent of modification [3]: A (percent of modification ≥70%)

Now from value to compound:

GppNHp-KRAS G12C percent of modification [1]: A (percent of modification ≥70%) | GTP-KRAS G12C percent of modification [2]: A (percent of modification ≥70%) | GDP-KRAS G12C percent of modification [3]: A (percent of modification ≥70%)
SMILES: C=CC(=O)N1CC[C@@H](N(C)c2nc(OC[C@@]34CCCN3C[C@H](F)C4)nc3c(F)c(-c4ccc(F)c5sc(N)c(C#N)c45)c(C(F)(F)F)cc23)[C@@H]1C (atropisomer, axis not shown) [Compound 70]

GppNHp-KRAS G12C percent of modification [1]: D (percent of modification <10%) | GTP-KRAS G12C percent of modification [2]: D (percent of modification <10%) | GDP-KRAS G12C percent of modification [3]: D (percent of modification <10%) | IC50 ([4]; Homo sapiens, NCI-H358, 0.5 h): 100 to 1000 nM
SMILES: C[C@@H]1[C@H](N(C)c2nc(OC[C@@]34CCCN3C[C@H](F)C4)nc3c(F)c(-c4ccc(F)c5sc(N)c(C#N)c45)c(C(F)(F)F)cc23)CCN1C(=O)[C@@H](F)Cl (atropisomer, axis not shown) [Compound 184]

GppNHp-KRAS G12C percent of modification [1]: A (percent of modification ≥70%) | GTP-KRAS G12C percent of modification [2]: A (percent of modification ≥70%) | GDP-KRAS G12C percent of modification [3]: A (percent of modification ≥70%) | IC50 [4]: < 100 nM
SMILES: C[C@@H]1[C@H](N(C)c2nc(OC[C@@]34CCCN3C[C@H](F)C4)nc3c(F)c(-c4ccc(F)c5sc(N)c(C#N)c45)c(C(F)(F)F)cc23)CCN1C(=O)[C@@H](F)Cl (atropisomer, axis not shown) [Compound 185]

GppNHp-KRAS G12C percent of modification [1]: D (percent of modification <10%) | GTP-KRAS G12C percent of modification [2]: D (percent of modification <10%) | GDP-KRAS G12C percent of modification [3]: D (percent of modification <10%) | IC50 ([4]; Homo sapiens, NCI-H358, 0.5 h): 100 to 1000 nM
SMILES: C[C@@H]1[C@H](N(C)c2nc(OC[C@@]34CCCN3C[C@H](F)C4)nc3c(F)c(-c4ccc(F)c5sc(N)c(C#N)c45)c(C(F)(F)F)cc23)CCN1C(=O)[C@H](F)Cl (atropisomer, axis not shown; (aS)) [Compound 182, 2-amino-4-((R)-4-(((2R,3R)-1-((R)-2-chloro-2-fluoroacetyl)-2-methylpyrrolidin-3-yl)(methyl)amino)-8-fluoro-2-(((2R,7aS)-2-fluorotetrahydro-1H-pyrrolizin-7a(5H)-yl)methoxy)-6-(trifluoromethyl)quinazolin-7-yl)-7-fluorobenzo[b]thiophene-3-carbonitrile]
